IC50 and melting point data for 27 molecules are collected here from patent US7601716B2, “Pyridopyrazines and derivatives thereof as ALK and c-Met inhibitors” (Cephalon, Inc., priority 2006, dated 2009).

What is called IC50 is the concentration that inhibits the measured activity by half. A word on the melting point: it is the temperature of the solid-liquid transition.

Data set [1] addresses T1, c-Met (cytoplasmic domain) (Homo sapiens, UniProt P08581).
T1 construct: Reactions were initiated with 30 ng/mL c-Met (cytoplasmic domain, Invitrogen Corporation #PV3143); purchased Invitrogen Corporation PV3143
The data set can be described thus: c-Met Kinase Assay (ELISA/TRF, PLC-γ substrate). It counts as biochemical. The conditions noted are these: 3 μM ATP (Km level); read-out: c-Met Kinase Inhibition (IC50). The gist of the method:
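c-Met cytoplasmic domain (30 ng/mL) phosphorylates plate-coated GST–PLC-γ for 15 min at 37 °C. Phosphotyrosine detected with Eu-labeled PT66 antibody by time-resolved fluorescence. IC50 from variable-slope sigmoidal fit of % inhibition vs log concentration.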
Background: ELISA stands for enzyme-linked immunosorbent assay.

Data set [2] deals with baculovirus-expressed ALK (Homo sapiens, UniProt Q9UM73). The data set can be described thus: ALK Kinase Assay (ELISA/TRF, PLC-γ substrate). Further: 1 µM ATP (Km level). It counts as biochemical. The conditions noted are these: read-out: ALK Kinase Inhibition (IC50). The gist of the method:
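Plates coated with GST-PLC-γ substrate (10 µg/mL in TBS), then reaction started with 30 ng/ml baculovirus-expressed ALK, 15 min at 37 °C. Phosphotyrosine detected by Eu-labeled PT66 antibody and time-resolved fluorescence. IC50 from variable-slope sigmoidal fit of percent inhibition versus log concentration.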

SMILES strings stand for the structures.

baculovirus-expressed ALK, sequence (Q9UM73 19-1620): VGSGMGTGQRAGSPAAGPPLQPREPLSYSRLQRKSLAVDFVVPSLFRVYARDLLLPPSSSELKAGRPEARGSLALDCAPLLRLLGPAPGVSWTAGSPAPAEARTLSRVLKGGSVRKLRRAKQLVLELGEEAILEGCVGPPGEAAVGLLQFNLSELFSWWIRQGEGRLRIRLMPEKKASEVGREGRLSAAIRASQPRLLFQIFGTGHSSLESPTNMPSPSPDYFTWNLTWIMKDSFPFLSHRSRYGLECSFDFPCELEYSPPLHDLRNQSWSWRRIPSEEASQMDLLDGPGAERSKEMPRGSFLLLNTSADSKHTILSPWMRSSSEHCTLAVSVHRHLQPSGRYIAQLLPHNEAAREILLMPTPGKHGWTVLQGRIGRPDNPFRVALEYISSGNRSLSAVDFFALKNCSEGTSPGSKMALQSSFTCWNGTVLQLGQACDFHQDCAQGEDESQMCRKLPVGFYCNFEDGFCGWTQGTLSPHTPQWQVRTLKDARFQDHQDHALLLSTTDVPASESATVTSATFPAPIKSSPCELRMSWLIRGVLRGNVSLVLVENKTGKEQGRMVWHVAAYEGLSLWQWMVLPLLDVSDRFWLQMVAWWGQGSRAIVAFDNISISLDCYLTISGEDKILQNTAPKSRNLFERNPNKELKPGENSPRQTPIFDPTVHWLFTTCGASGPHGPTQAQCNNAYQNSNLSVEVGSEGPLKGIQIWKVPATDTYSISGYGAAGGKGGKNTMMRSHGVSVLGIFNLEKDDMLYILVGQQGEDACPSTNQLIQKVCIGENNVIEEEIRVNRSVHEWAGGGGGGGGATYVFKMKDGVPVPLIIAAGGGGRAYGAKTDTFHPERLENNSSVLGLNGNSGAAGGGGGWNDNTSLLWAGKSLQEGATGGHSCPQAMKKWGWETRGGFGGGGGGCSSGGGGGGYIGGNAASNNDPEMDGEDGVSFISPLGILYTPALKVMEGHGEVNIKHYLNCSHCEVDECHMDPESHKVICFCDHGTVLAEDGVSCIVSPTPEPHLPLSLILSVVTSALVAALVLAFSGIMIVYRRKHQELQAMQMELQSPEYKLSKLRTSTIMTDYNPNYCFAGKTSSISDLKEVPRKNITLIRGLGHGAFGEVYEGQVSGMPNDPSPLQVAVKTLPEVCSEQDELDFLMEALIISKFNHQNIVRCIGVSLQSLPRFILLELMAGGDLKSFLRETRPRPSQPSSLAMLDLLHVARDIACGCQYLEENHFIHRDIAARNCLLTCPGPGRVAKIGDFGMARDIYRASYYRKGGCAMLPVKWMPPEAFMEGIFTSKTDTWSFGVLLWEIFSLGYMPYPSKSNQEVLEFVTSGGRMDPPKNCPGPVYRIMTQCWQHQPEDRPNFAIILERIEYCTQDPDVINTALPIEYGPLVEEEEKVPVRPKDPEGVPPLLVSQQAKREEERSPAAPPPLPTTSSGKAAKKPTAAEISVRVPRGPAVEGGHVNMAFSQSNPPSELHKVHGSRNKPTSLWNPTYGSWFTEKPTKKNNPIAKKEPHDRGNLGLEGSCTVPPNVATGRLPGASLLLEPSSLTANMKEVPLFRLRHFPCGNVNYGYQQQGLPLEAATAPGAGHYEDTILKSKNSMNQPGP
T1 sequence (P08581 956-1390 limits assumed): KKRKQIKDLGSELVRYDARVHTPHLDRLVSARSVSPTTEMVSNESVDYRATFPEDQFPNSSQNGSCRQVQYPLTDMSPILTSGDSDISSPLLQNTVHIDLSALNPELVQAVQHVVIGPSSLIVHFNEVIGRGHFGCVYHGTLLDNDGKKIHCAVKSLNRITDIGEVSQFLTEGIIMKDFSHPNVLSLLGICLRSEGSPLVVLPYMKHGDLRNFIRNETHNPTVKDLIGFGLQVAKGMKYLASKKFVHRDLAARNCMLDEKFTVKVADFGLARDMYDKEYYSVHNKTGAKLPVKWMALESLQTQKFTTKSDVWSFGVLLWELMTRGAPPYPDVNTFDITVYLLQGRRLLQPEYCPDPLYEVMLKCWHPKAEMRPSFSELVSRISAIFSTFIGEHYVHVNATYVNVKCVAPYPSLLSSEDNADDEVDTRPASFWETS

`CN1CCN(C(=O)c2ccc(-c3cnc4c(c3)N(Cc3cc(F)ccc3F)CC(C)(C)N4)cc2)CC1` [Example 97, {4-[1-(2,5-Difluorobenzyl)-3,3-dimethyl-1,2,3,4-tetrahydropyrido[2,3-b]pyrazin-7-yl]phenyl}-(4-methylpiperazin-1-yl)methanone]: the melting point lay within 191 to 192 °C. Also, the IC50 in data set [1] was more than 100 µM. Moreover, in data set [2], the half-maximal inhibitory concentration (IC50) fell in the range of 10 to 100 µM.
Turning to `Fc1ccc(F)c(CN2CCNc3ncc(I)cc32)c1Cl` [Example 98, 1-(2-Chloro-3,6-difluorobenzyl)-7-iodo-1,2,3,4-tetrahydropyrido[2,3-b]pyrazine], the melting point fell in the range of 156 to 157 °C. Besides, the IC50 in data set [1] was more than 100 µM. The IC50 in data set [2] was in the range of 1 to 10 µM.
On to `Cc1noc(C)c1-c1cnc2c(c1)N(Cc1c(F)ccc(F)c1Cl)CCN2` [Example 103, 1-(2-Chloro-3,6-difluorobenzyl)-7-(3,5-dimethyl-isoxazol-4-yl)-1,2,3,4-tetrahydropyrido[2,3-b]pyrazine], for which the melting point was 215 to 216 °C. Further, the IC50 in data set [1] fell in the range of 10 to 100 µM. The IC50 in data set [2] is 0.1 to 1 µM.
Turning to `Fc1ccc(F)c(CN2CCNc3ncc(-c4cnc(N5CCOCC5)nc4)cc32)c1Cl` [Example 107, 1-(2-Chloro-3,6-difluorobenzyl)-7-(2-morpholin-4-yl-pyrimidin-5-yl)-1,2,3,4-tetrahydropyrido[2,3-b]pyrazine], the melting point lay within 250 to 251 °C. For the same molecule, the IC50 in data set [1] was in the range of 10 to 100 µM. Also, the half-inhibitory concentration (IC50) in data set [2] is less than 0.1 µM.
For `Fc1ccc(F)c(CN2CCNc3ncc(-c4ccc(N5CCOCC5)cc4)cc32)c1Cl` [Example 108, 1-(2-Chloro-3,6-difluorobenzyl)-7-(4-morpholin-4-yl-phenyl)-1,2,3,4-tetrahydropyrido[2,3-b]pyrazine] the same measures were 217 to 219 °C, 10 to 100 µM and less than 0.1 µM.
For `CN1CCN(c2ccc(-c3cnc4c(c3)NCCN4)cn2)CC1` [Example 109, 7-[6-(4-Methylpiperazin-1-yl)pyridin-3-yl]-1,2,3,4-tetrahydropyrido[2,3-b]pyrazine] the same measures were 225 °C (dec.), more than 100 µM and 10 to 100 µM.
For `O=C(Cc1cc(F)ccc1F)N1CCNc2ncc(I)cc21` [Example 112, 2-(2,5-Difluorophenyl)-1-(7-iodo-3,4-dihydro-2H-pyrido[2,3-b]pyrazin-1-yl)ethanone] the same measures were 152 to 153 °C, 10 to 100 µM and 10 to 100 µM.
`CN1CCN(c2ccc(-c3cnc4c(c3)N(C(=O)Cc3cc(F)ccc3F)CCN4)cn2)CC1` [Example 113]: the melting point is more than 300 °C. Also, in data set [1], the IC50 was in the range of 10 to 100 µM. Further, the IC50 in data set [2] lay in the range of 1 to 10 µM.
On the same counts, the results for `FC(F)(F)c1ccc(Cl)cc1CN1CCNc2ncc(I)cc21` [Example 115, 1-(5-Chloro-2-trifluoromethylbenzyl)-7-iodo-1,2,3,4-tetrahydropyrido[2,3-b]pyrazine] are 189 to 191 °C, more than 100 µM and 1 to 10 µM.
`O=C1CNc2ncc(I)cc2N1Cc1cc(C(F)(F)F)ccc1Cl` [Example 116, 1-(2-Chloro-5-trifluoromethylbenzyl)-7-iodo-3,4-dihydro-1H-pyrido[2,3-b]pyrazin-2-one] gave a melting point of 252 to 253 °C. In addition, the IC50 in data set [1] is more than 100 µM. The half-maximal inhibitory concentration (IC50) in data set [2] lay in the range of 10 to 100 µM.
Molecule `FC(F)(F)c1ccc(Cl)c(CN2CCNc3ncc(I)cc32)c1` [Example 119, 1-(2-Chloro-5-trifluoromethylbenzyl)-7-iodo-1,2,3,4-tetrahydropyrido[2,3-b]pyrazine] returned a melting point of 120 to 125 °C. The half-inhibitory concentration (IC50) in data set [1] is more than 100 µM. Further, the IC50 in data set [2] was more than 100 µM.
Consider `O=S(=O)(c1cc(F)ccc1F)N1CCNc2ncc(I)cc21` [Example 121, 1-(2,5-Difluorobenzenesulfonyl)-7-iodo-1,2,3,4-tetrahydropyrido[2,3-b]pyrazine], for which the melting point lay in the range of 187 to 188 °C. In addition, the IC50 in data set [1] was 10 to 100 µM. For the same molecule, the IC50 in data set [2] lay in the range of 1 to 10 µM.
Take `O=S(=O)(c1ccccc1Cl)N1CCNc2ncc(I)cc21` [Example 124, 1-(2-Chlorobenzenesulfonyl)-7-iodo-1,2,3,4-tetrahydropyrido[2,3-b]pyrazine]: the melting point lay in the range of 146 to 147 °C. Besides, the concentration for half-maximal inhibition (IC50) in data set [1] was 10 to 100 µM. The 50% inhibitory concentration (IC50) in data set [2] was in the range of 1 to 10 µM.
For `CN1CCN(c2ccc(-c3cnc4c(c3)N(S(=O)(=O)c3ccccc3Cl)CCN4)cn2)CC1` [Example 126, 1-(2-Chlorobenzenesulfonyl)-7-[6-(4-methylpiperazin-1-yl)pyridin-3-yl]-1,2,3,4 tetrahydropyrido[2,3-b]pyrazine] the same measures were 164 to 165 °C, 1 to 10 µM and 0.1 to 1 µM.
For `N#Cc1cnc2c(c1)N(Cc1cc(Cl)ccc1Cl)CCN2` [Example 127, 1-(2,5-Dichlorobenzyl)-1,2,3,4-tetrahydropyrido[2,3-b]pyrazine-7-carbonitrile] the same measures were 221 to 222 °C, more than 100 µM and 1 to 10 µM.
On the same counts, the results for `O=C(O)c1cnc2c(c1)N(Cc1cc(Cl)ccc1Cl)CCN2` [Example 128, 1-(2,5-Dichlorobenzyl)-1,2,3,4-tetrahydropyrido[2,3-b]pyrazine-7-carboxylic acid] are 273 °C (dec.), 10 to 100 µM and more than 100 µM.
As for `CC(C)(C)OC(=O)N1CC=C(c2cnc3c(c2)N(Cc2cc(Cl)ccc2Cl)CCN3)CC1` [Example 130, 4-[1-(2,5-Dichlorobenzyl)-1,2,3,4-tetrahydropyrido[2,3-b]pyrazin-7-yl]-3,6-dihydro-2H-pyridine-1-carboxylic acid tert-butyl ester], the melting point is 92 to 95 °C. The IC50 in data set [1] fell in the range of 10 to 100 µM. Besides, the IC50 in data set [2] lay within 1 to 10 µM.
On the same counts, the results for `Clc1ccc(Cl)c(CN2CCNc3ncc(C4=CCNCC4)cc32)c1` [Example 131, 1-(2,5-Dichlorobenzyl)-7-(1,2,3,6-tetrahydropyridin-4-yl)-1,2,3,4-tetrahydropyrido[2,3-b]pyrazine] are 133 to 136 °C, 1 to 10 µM and 1 to 10 µM.
On the same counts, the results for `O=C1CNc2ncc(I)cc2N1Cc1cc(F)ccc1C(F)(F)F` [Example 133, 1-(5-Fluoro-2-trifluoromethylbenzyl)-7-iodo-3,4-dihydro-1H-pyrido[2,3-b]pyrazin-2-one] are 244 to 245 °C, more than 100 µM and more than 100 µM.
For the molecule `OC1CNc2ncc(I)cc2N1Cc1cc(F)ccc1C(F)(F)F` (stereo not drawn) [Example 134, 1-(5-Fluoro-2-trifluoromethylbenzyl)-7-iodo-1,2,3,4-tetrahydropyrido[2,3-b]pyrazin-2-ol], the melting point was 142 °C (dec.). The IC50 in data set [1] lay in the range of 10 to 100 µM. The half-maximal inhibitory concentration (IC50) in data set [2] lay within 10 to 100 µM.
`CCOC(=O)c1ccc(-c2cnc3c(c2)NC(=O)CN3)cc1` [Example 135, 4-(2-Oxo-1,2,3,4-tetrahydropyrido[2,3-b]pyrazin-7-yl)benzoic acid ethyl ester] displayed a melting point of more than 200 °C. Further, the IC50 in data set [1] was more than 100 µM. Also, the IC50 in data set [2] is more than 100 µM.
`O=C1CNc2ncc(I)cc2N1Cc1c(Cl)cccc1Cl` [Example 136, 1-(2,6-Dichlorobenzyl)-7-iodo-3,4-dihydro-1H-pyrido[2,3-b]pyrazin-2-one] displayed a melting point of more than 200 °C. Further, the half-maximal inhibitory concentration (IC50) in data set [1] is more than 100 µM. The IC50 in data set [2] is more than 100 µM.
Molecule `O=C1CNc2ncc(-c3cccnc3)cc2N1Cc1c(Cl)cccc1Cl` [Example 137, 1-(2,6-Dichlorobenzyl)-7-pyridin-3-yl-3,4-dihydro-1H-pyrido[2,3-b]pyrazin-2-one] came in with a melting point of more than 200 °C. For the same molecule, the IC50 in data set [1] was more than 100 µM. In data set [2], the IC50 lay in the range of 10 to 100 µM.
For `CCOC(=O)c1ccc(-c2cnc3c(c2)N(Cc2c(Cl)cccc2Cl)C(=O)CN3)cc1` [Example 139, 4-[1-(2,6-Dichlorobenzyl)-2-oxo-1,2,3,4-tetrahydropyrido[2,3-b]pyrazin-7-yl]benzoic acid ethyl ester] the same measures were 226 °C, 10 to 100 µM and 10 to 100 µM.
With `O=C(O)c1ccc(-c2cnc3c(c2)N(Cc2c(Cl)cccc2Cl)C(=O)CN3)cc1` [Example 140, 4-[1-(2,6-Dichlorobenzyl)-2-oxo-1,2,3,4-tetrahydropyrido[2,3-b]pyrazin-7-yl]benzoic acid], the melting point was more than 200 °C. Besides, the IC50 in data set [1] was in the range of 1 to 10 µM. In addition, the IC50 in data set [2] is 1 to 10 µM.
`O=C(NCCN1CCCC1)c1ccc(-c2cnc3c(c2)N(Cc2c(Cl)cccc2Cl)C(=O)CN3)cc1` [Example 142, 4-[1-(2,6-Dichlorobenzyl)-2-oxo-1,2,3,4-tetrahydropyrido[2,3-b]pyrazin-7-yl]-N-(2-pyrrolidin-1-yl-ethyl)benzamide]: the melting point is more than 200 °C. In data set [1], the half-inhibitory concentration (IC50) lay in the range of 1 to 10 µM. Moreover, in data set [2], the concentration for half-maximal inhibition (IC50) fell in the range of 0.1 to 1 µM.
On the same counts, the results for `O=C1CNc2ncc(I)cc2N1Cc1cc(Cl)ccc1Cl` [Example 155, 1-(2,5-Dichlorobenzyl)-7-iodo-3,4-dihydro-1H-pyrido[2,3-b]pyrazin-2-one] are more than 200 °C, more than 100 µM and 10 to 100 µM.
